Where a chain is given by its changes, count along the chain named. Marks after values point to notes of the source that are not given here.
Legend:
[1] = molecular target: T1, norepinephrine transporter (NET) (Homo sapiens, UniProt P23975); test: Specific uptake into norepinephrine transporter (NET) transfected HEK-293 cells; type: cell-based; conditions: 10 µmol/l, 5 min incubation
T1 construct: expressed in transfected cells; host or cells: HEK-293, stably transfected; cDNA from C; Pifl (University of Vienna)
T1 sequence (P23975 whole entry): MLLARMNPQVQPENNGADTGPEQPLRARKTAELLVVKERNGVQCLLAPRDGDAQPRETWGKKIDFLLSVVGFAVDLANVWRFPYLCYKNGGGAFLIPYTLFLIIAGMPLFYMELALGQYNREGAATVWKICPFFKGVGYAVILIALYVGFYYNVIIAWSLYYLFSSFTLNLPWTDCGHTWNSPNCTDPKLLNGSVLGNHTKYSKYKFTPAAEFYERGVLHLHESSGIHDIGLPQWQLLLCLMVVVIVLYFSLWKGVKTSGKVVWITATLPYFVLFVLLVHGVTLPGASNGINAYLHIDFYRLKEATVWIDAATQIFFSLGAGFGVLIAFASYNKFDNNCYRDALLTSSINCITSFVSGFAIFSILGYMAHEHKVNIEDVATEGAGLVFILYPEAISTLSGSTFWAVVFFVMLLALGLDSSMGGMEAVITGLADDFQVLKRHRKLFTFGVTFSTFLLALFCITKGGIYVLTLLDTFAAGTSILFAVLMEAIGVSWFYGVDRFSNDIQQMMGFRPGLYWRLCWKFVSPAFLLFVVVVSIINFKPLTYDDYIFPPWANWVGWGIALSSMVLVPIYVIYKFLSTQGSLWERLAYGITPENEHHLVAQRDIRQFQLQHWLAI
From the text: Pifl (University of Vienna).
1. Burnette WB, Bailey MD, Kukoyi S, Blakely RD, Trowbridge CG, et al. (1996) Human norepinephrine transporter kinetics using rotating disk electrode voltammetry. Anal Chem 68: 2932–2938. (0.90 MB TIF) Click here for additional data file.

[2] = tested on: HEK-293 cells expressing empty vector; test: MTT reduction cell viability assay, empty vector transfected HEK-293 cells; type: cell-based, human
Protocol: Cell viability was assessed in HEK-293 cells, human dopaminergic neuroblastoma cells (SH-SY5Y) and human glioblastoma cells (HTZ-146) by the MTT test as described.[22] […] For indication of metabolic activity, cells were treated with MTT reagent (15 µl of 1 mg/ml stock solution per well) for 1 h, and after drying of culture plates for 1 h at 37°C, the resulting formazan dye was extracted with isopropanol/HCl (100 µl 0.04 mol/l per well) and absorbance was determined spectrophotometrically at 568 nm. Results were in agreement with the data obtained by the tryptan blue exclusion method (data not shown).

[3] = molecular target: T2, OCT2 variant M165I (Homo sapiens, UniProt O15244, M165I/S270A); test: Specific uptake into HEK-293 cells transfected with OCT2 variant M165I
T2 sequence (O15244 1-555 M165I/S270A): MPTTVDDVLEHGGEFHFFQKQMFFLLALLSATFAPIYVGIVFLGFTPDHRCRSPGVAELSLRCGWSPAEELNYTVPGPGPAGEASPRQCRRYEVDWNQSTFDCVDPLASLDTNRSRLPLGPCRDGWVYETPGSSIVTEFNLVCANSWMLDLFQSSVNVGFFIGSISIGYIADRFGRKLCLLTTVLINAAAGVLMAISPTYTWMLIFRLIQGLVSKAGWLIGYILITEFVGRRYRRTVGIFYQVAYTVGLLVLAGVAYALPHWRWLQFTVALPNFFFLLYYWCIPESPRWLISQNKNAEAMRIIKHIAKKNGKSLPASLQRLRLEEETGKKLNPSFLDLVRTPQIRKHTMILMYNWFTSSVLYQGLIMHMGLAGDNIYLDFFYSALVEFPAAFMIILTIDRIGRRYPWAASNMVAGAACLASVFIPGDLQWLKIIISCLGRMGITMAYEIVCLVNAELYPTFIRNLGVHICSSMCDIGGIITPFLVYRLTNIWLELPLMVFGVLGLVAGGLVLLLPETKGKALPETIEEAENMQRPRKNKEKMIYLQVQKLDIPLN
Protocol: (§1) The cDNAs encoding the organic cation transporters OCT1 (GenBank accession no. NM_003057), OCT2 (NM_003058), and EMT (NM_021977) were amplified by RT-PCR from human liver, kidney, and placenta total RNA respectively, and subcloned into the eukaryotic expression vector pcDNA3. The cDNA encoding the norepinephrine transporter (SLC6A2) was kindly provided by C. Pifl (University of Vienna).
For uptake experiments, cells were grown on polystyrene dishes of 60 mm diameter to at least 80% confluence. […] Cells were lysed with 1 ml of 4 mmol/l perchloric acid and lysates subjected to LC-MS-MS quantification. Cellular protein content was determined after solubilization of perchloric acid precipitates with 1 ml of […] NaOH using the bicinchoninic assay (BCA Protein Assay Kit, Pierce).
Chromatographic separations were performed on Hypercarb (5 µm, 50×2.1 mm; Thermo Electron), Aquasil C18 (3 µm, 100×4.6 mm; Thermo Electron), or Hilic columns (5 µm, 100×3.0 mm; Waters Atlantis) by isocratic or gradient elution using 0.1% aqueous formic acid (A) and acetonitrile or methanol (B) as solvent system. For quantification, SRM transitions of a precursor ion [M+H]^+ into a specific fragment ion (peak area ratios relative to IS) were recorded in positive ESI mode at 1.0–1.5 mTorr collision pressure and 10–40 eV collision energy. […]

[4] = molecular target: T3, OCT2 variant R400C (Homo sapiens, UniProt O15244, R400C/S270A); test: Specific uptake into HEK-293 cells transfected with OCT2 variant R400C (mutant 400C); conditions: for Clin: incubation with 10 µmol/l
T3 sequence (O15244 1-555 S270A/R400C): T2 sequence (O15244 1-555 M165I/S270A) with I165M, R400C
Protocol: as §1
For uptake experiments, cells were grown on polystyrene dishes of 60 mm diameter to at least 80% confluence. Prior to addition of test compounds, culture medium was replaced by 3 ml HEPES-modified Krebs buffer (140.0 mmol/l NaCl, 5.0 mmol/l KCl, 2.0 mmol/l CaCl2, 1.0 mmol/l MgCl2, 10.0 mmol/l HEPES, and 5.0 mmol/l D-glucose, adjusted to pH 7.40), and cells were left to equilibrate for 60 min at 37°C. Uptake was terminated after indicated times by washing cells with ice-cold buffer. Cells were lysed with 1 ml of 4 mmol/l perchloric acid and lysates subjected to LC-MS-MS quantification. Cellular protein content was determined after solubilization of perchloric acid precipitates with 1 ml of […] NaOH using the bicinchoninic assay (BCA Protein Assay Kit, Pierce).
Chromatographic separations were performed on Hypercarb (5 µm, 50×2.1 mm; Thermo Electron), Aquasil C18 (3 µm, 100×4.6 mm; Thermo Electron), or Hilic columns (5 µm, 100×3.0 mm; Waters Atlantis) by isocratic or gradient elution using 0.1% aqueous formic acid (A) and acetonitrile or methanol (B) as solvent system. For quantification, SRM transitions of a precursor ion [M+H]^+ into a specific fragment ion (peak area ratios relative to IS) were recorded in positive ESI mode at 1.0–1.5 mTorr collision pressure and 10–40 eV collision energy. External calibration curves were obtained from serial dilutions of the analyte in 4 mmol/l HClO4 by linear or logistic regression. Detection limit was at least 0.001 nmol/mg protein.
Uptake versus time data were fitted by linear one-compartment kinetics: cin(t) = cin,∞·(1−e^−kex·t), where cin(t) represents intracellular free substrate concentration after time t (pmol/mg protein), cin,∞ extrapolated maximal intracellular free substrate concentration (pmol/mg protein), and kex efflux rate constant (1/min). Influx clearance was calculated as CLin = cin,∞/cex·kex (µl/mg protein/min), with cex extracellular free substrate concentration (pmol/µl). Statistical significance of differences between two treatments was evaluated by the unpaired two-tailed t-test or Mann-Whitney U-test, differences between more than two treatments by one-way ANOVA or Kruskal-Wallis test, as applicable. P<0.05 was considered statistically significant.

| Clin ([3]; incubation with 10 µmol/l, mean (s.e.m.)) | Vmax ([4]; 1 min of loading, mean (s.e.m.), listed as CHP) | clearance (Clin) of 400C relative to the 400R reference ([4]; 400C vs wild-type 400R) | transport efficiency (Vmax/Km) of 400C relative to the 400R reference ([4]; 400C vs wild-type 400R) | Clin ([4]; mean (s.e.m.)) | Clin ([4]; mean (s.e.m.), listed as CHP) | Compound | substrate of NET (specific uptake) [1] | EC50 ([2]; Homo sapiens, HEK293, 48 h exposure, no pretreatment, read-out: EC50 (95% confidence interval), cell viability) | Km at 1 min ([3]; human, pH 7.4) | Km at 1 min ([4]; human, pH 7.4) | effect of pretreatment on salsolinol-induced degeneration ([2]; cyclo(his-pro) 10 µmol/l, 12 h prior to salsolinol treatment) |
| --- | --- | --- | --- | --- | --- | --- | --- | --- | --- | --- | --- |
|  |  |  |  |  |  | CC1NCCc2cc(O)c(O)cc21 (stereo not drawn) [salsolinol] | no substrates of NET | 1110 µM | 127 µM | 123 µM |  |
| 24.8 (3.7) µl/mg/min | 1.0 (0.1) nmol/mg/min | 70% | 48% | 17.6 (1.5)^# µl/mg/min | 17.6 (1.5) µl/mg/min | O=C1NC(Cc2c[nH]cn2)C(=O)N2CCCC12 (stereo not drawn) [cyclo(his-pro), histidyl-proline diketopiperazine] | no substrates of NET |  |  |  | had no effect |
